# Laboratory results published in patent publication EP0777471B1, “INHIBITION OF LEUKOTRIENE BIOSYNTHESIS WITH UREA DERIVATIVES” (MINNESOTA MINING AND MANUFACTURING COMPANY, priority 1994, dated 1996).
# Where “and” joins values, the source holds several entries; their conditions need not be identical. Identical values can stand only once. Like-named read-outs stand apart in the source and are kept apart here.
# What was measured:
# [1] = system: production of Leukotriene C4 in mouse peritoneal macrophages; assay: In vitro mouse peritoneal macrophage Leukotriene C4 inhibition (zymosan-stimulated, LTC4 radioimmunoassay); type: cell-based; settings: Zymosan 50 µg/mL
# Protocol: The test method described below measures the ability of compounds to inhibit the production of Leukotriene C4 in mouse peritoneal macrophages.
# Mice (female, CD-1, weighing 25 g) are euthanized by exposure to carbon dioxide. The peritoneal cavity is exposed by peeling back the abdominal skin. A 5 mL portion of media (M199 containing 1% fetal bovine serum, 100 units/mL of penicillin, 100 µg/mL of streptomycin, 20 units/mL of heparin and no glutamine) is injected into the exposed peritoneal cavity of each mouse. The lavage fluid is removed and pooled to yield approximately1 X 10^6 macrophages/mL. A 2 mL portion of lavage fluid is added to each well of a 24 well sterile multidish and the macrophages are allowed to adhere to the plate for 2 hours at 37°C in a 5% carbon dioxide atmosphere. The media is removed and each well is washed with 2 mL of phosphate buffered saline (PBS). A 1 mL portion of media, without heparin, but containing 5 µCi/mL of 3H-myoinositol is added to each well and the plates are incubated overnight at 37°C in a 5% carbon dioxide atmosphere. The media is removed and the cells are washed twice with 2 mL portions of PBS. A 1 mL portion of Puck's saline formulation A containing 1 mM calcium chloride, 1 mM magnesium chloride and 10 mM lithium chloride is added to each well. (The Puck's formulation is made first as a 10X solution which contains 4 g of potassium chloride, 80 g of sodium chloride and 10 g of glucose per liter. The Puck's saline formulation A is made using 10 mL of the 10X Puck's formulation, 0.47 mL of 7.5% sodium bicarbonate and 2 mL of 1M N-2-hydroxyethylpiperazine-N'-2-ethanesulfonic acid per 100 mL.)
# Compounds are dissolved in dimethyl sulfoxide. Compounds are tested at concentrations of 10, 1 and 0.1 µM. Each concentration is tested in duplicate.
# A 1 µL portion of compound solution or vehicle (DMSO) is added to each well and the plates are incubated for 15 minutes at 37°C in a 5% carbon dioxide atmosphere. Zymosan is then added to provide a final concentration of 50 µg/mL in each well and the plate is incubated for 1 to 2 hours at 37°C in a 5% carbon dioxide atmosphere.
# Following incubation 200 µL portions of media are transferred to 12 X 75 mm tubes. The tubes are either assayed immediately or stored at -20°C until they can be assayed.
# The media is assayed for the presence of Leukotriene C4 by radioimmunoassay which is performed according to the manufacturer's (Advanced Magnetics; Cambridge, MA) instructions.
# [2] = system: production of Leukotriene B4; assay: Rat ex vivo Leukotriene B4 inhibition (oral dosing, blood challenged with A23187); type: in vivo, Rats; settings: 50 mg/Kg, two hours post dose
# Protocol: The test method described below measures the ability of a compound when administered orally to rats to inhibit the production of Leukotriene B4 in their blood which is drawn and challenged.
# Rats (CD, male, non-fasted, 250 g) are lightly anesthetized with carbon dioxide and an approximately 0.75 mL sample of whole blood is obtained via cardiac puncture. The sample is dispensed into 12 X 75 mm polypropylene tubes containing 8-10 µL of 10,000 units/mL heparin, mixed and then maintained on ice. The rats are allowed to recover approximately one hour then dosed orally with compound dissolved in PEG 400 at a 5 mL/Kg volume. Five (5) rats are utilized per group. Two (2) hours post dose the rats are again anesthetized with carbon dioxide and the blood sampled again via cardiac puncture.
# Duplicate 200 µL portions of blood are added to 1.0 mL polypropylene tubes. A 10 µL portion of 1mM A23187 Calcium Ionophore in dimethyl sulfoxide/Tris buffer is added to each tube. The tubes are gently vortexed then incubated in a 37°C water bath for 30 minutes. The tubes are then centrifuged at 4000 rpm for 10 minutes. 50 µL portions of plasma are transferred to 1.0 mL tubes containing 200 µL of methanol. The tubes are vortexed then placed in the freezer overnight.
# The tubes are removed from the freezer then centrifuged at 4000 rpm for 10 minutes. […] portions of the methanol/plasma supernatant and 10 µL methanol dilutions of LTB4 standard curve are transferred to 96 well v-bottom microtiter plates. The plates are vacuum dried at 40°C. A 40 µL portion of LTB4 radioimmunoassay buffer is added to each well. The plate is bath sonicated for 5 minutes then assayed according to the manufacturer's (Advanced Magnetics; Cambridge, MA) instructions. Percent inhibition values are obtained by comparing the level of LTB4 in the post-dose samples to the level in the pre-dose samples according to the equation below. % Inhibition =((LTB4 pre-dose) - (LTB4 post-dose))/((LTB4 pre-dose))X 100 [formula]
# [3] = system: production of Leukotriene B4 (LTB4); assay: Dog ex vivo Leukotriene B4 inhibition (oral dosing, blood challenged with calcium ionophore); type: in vivo, beagle dogs; settings: each entry one dog, negative = stimulation of LTB4 production; for inhibition at 5 mg/kg: Canis lupus familiaris, po
# Protocol: The test method described below measures the ability of a compound when administered orally to dogs to inhibit the production of Leukotriene B4 (LTB4) in their blood which is drawn and challenged at selected time points.
# The test is conducted in beagle dogs (male and female; about 10 Kg). Prior to starting, the neck area of the beagle is shaved to allow easy access to the jugular vein. A 3-4 mL sample of blood is drawn from the jugular vein into a heparinized vacutainer. The dog is then dosed using a tube long enough to reach its stomach. The compound is dissolved in PEG 400 at a concentration such that the appropriate dose can be administered in approximately 5 mL. Immediately after the compound is given, a flush using 5 mL of vehicle is given to rinse the dosing tube. At selected time points following the dose, a 3-4 mL sample of blood is drawn.
# The blood samples that have been drawn are challenged as soon as possible. A 0.5 mL portion of blood is aliquoted into 3 tubes (1 mL microtiter tubes). A 1 µL portion of 25 mM calcium ionophore in dimethyl sulfoxide is added to 2 of the tubes. A 1 µL portion of dimethyl sulfoxide is added to the third tube. The tubes are lightly mixed then placed in a 37°C water bath for 30 minutes. The tubes are centrifuged at 11,000 rpm for 3 minutes and the plasma supernatant is transferred to clean tubes. A 50 µL portion of this plasma is added to a I mL microtiter tube containing 200 µL of methanol. The tubes are placed in the freezer at -20°C for at least 1 hour then centrifuged at 2000 rpm for 10 minutes. A 10 µL portion of the methanol supematant is dried under vacuum at ambient temperature and then reconstituted in LTB4 buffer. The amount of LTB4 in the sample is determined by radioimmunoassay performed according to the manufacturer's (Advanced Magnetics; Cambridge, MA) instructions. Percent inhibition values are obtained by comparing the level of LTB4 in the post-dose sample to the level in the pre-dose sample according to the equation below. % Inhibition =((LTB4 predose) - (LTB4 postdose))/((LTB4 predose))X 100 [formula]
# A number of the compounds that are useful in the practice of the method of the invention were tested. The results are shown in Table 15 below where each entry represents the results from one dog. A negative number indicates stimulation of LTB4 production. All compounds were tested at a dose of 5 mg/Kg.
IC50 [1],SMILES,%I [2],also measured
< 100 nM,"CCC(CC)N(O)C(=O)Nc1ccccc1Oc1ccccc1 [Compound 76, 1-Hydroxy-1-(1-ethylpropyl)-3-(2-phenoxyphenyl)urea]",13%,
< 10000 nM,"CN(O)C(=O)N(C)c1ccccc1 [Compound 75, 1-Hydroxy-1,3-dimethyl-3-phenylurea]",0%,
< 10000 nM,"CCC(CC)N(O)C(=O)N(C)c1ccccc1 [Compound 74, 1-Hydroxy-1-(1-ethylpropyl)-3-methyl-3-phenylurea]",7%,
300 nM,"CC(C)N(O)C(=O)Nc1ccc([N+](=O)[O-])cc1 [Compound 30, 1-hydroxy-1-(1-methylethyl)-3-(4-nitrophenyl)urea]",13%,
< 1000 nM,"CCCCCCCCCCCCN(O)C(=O)Nc1ccccc1 [Compound 53, 1-dodecyl-1-hydroxy-3-phenylurea]",1%,
1000 nM,"CN(O)C(=O)Nc1ccc([N+](=O)[O-])cc1 [Compound 13, 1-hydroxy-1-methyl-3-(4-nitrophenyl)urea]",23%,
< 1000 nM,"CCCC(CC)N(O)C(=O)Nc1ccccc1 (stereo not drawn) [Compound 71, 1-Hydroxy-1-(1-ethylbutyl)-3-phenylurea]",5%,
< 1000 nM,"CC(CCN(O)C(=O)Nc1ccccc1)CC(C)(C)C (stereo not drawn) [Compound 49, 1-hydroxy-3-phenyl-1-(3,5,5-trimethylhexyl)urea]",13%,
< 1000 nM,"CCOC(=O)CCCCCN(O)C(=O)Nc1ccccc1 [Compound 50, 6-(1-hydroxy-3-phenylureido)-1-hexanoic acid ethyl ester]",6%,
< 100 nM,"CCCCCN(O)C(=O)Nc1ccccc1 [Compound 56, 1-hydroxy-1-pentyl-3-phenylurea]",6% and 13%,
400 nM,"CSc1cccc(NC(=O)N(O)C2CCCCC2)c1 [Compound 32, 1-Cyclohexyl-1-hydroxy-3-[3-(methylthio)phenyl]urea]",28%,
6400 nM,"CC(C)N(O)C(=O)Nc1ccc(S(C)(=O)=O)cc1 [Compound 62, 1-Hydroxy-1-(1-methylethyl)-3-[4-(methylsulfonyl)phenyl]urea]",18%,
600 nM,"O=C(Nc1ccccc1)N(O)C1CCCCCC1 [Compound 51, 1-cycloheptyl-1-hydroxy-3-phenylurea]",22%,
200 nM,"O=C(Nc1ccccc1)N(O)C1CCCCCCC1 [Compound 36, 1-Cyclooctyl-1-hydroxy-3-phenylurea]",7%,
< 1000 nM,"CCCC(CCC)N(O)C(=O)Nc1ccccc1 [Compound 70, 1-Hydroxy-1-(1-propylbutyl)-3-phenylurea]",0%,
< 1000 nM,"CCC(CC)N(O)C(=O)Nc1ccc(Cc2ccccc2)cc1 [Compound 78, 1-Hydroxy-1-(1-ethylpropyl)-3-(4-benzylphenyl)urea]",0%,
< 100 nM,"CCCCCCCCN(O)C(=O)Nc1ccccc1 [Compound 52, 1-hydroxy-1-octyl-3-phenylurea]",9%,
< 1000 nM,"O=C(Nc1ccc([N+](=O)[O-])cc1)N(O)C1CCCCCCC1 [Compound 38, 1-Cyclooctyl-1-hydroxy-3-(4-nitrophenyl)urea]",2%,
< 1000 nM,"CCC(C)N(O)C(=O)Nc1ccccc1 (stereo not drawn) [Compound 69, 1-Hydroxy-1-(1-methylpropyl)-3-phenylurea]",71%,
< 1000 nM,"CCC(CC)N(O)C(=O)Nc1ccc(SC)cc1 [Compound 39, 1-(1-Ethylpropyl)-1-hydroxy-3-[4-(methylthio)phenyl]urea]",59%,
1000 nM,"CCC(CC)N(O)C(=O)Nc1ccc([N+](=O)[O-])cc1 [Compound 40, 1-(1-Ethylpropyl)-1-hydroxy-3-(4-nitrophenyl)urea]",0%,
< 100 nM,"CSc1ccc(NC(=O)N(O)C(C)C)cc1 [Compound 15, 1-Hydroxy-1-(1-methylethyl)-3-[4-(methylthio)phenyl]urea]",,"% Inhibition 1 hour ([3]; 5 mg/Kg, 1 hour post dose): 95%; % Inhibition 2 hour ([3]; 5 mg/Kg, 2 hour post dose): 98%; % Inhibition 4 hour ([3]; 5 mg/Kg, 4 hour post dose): 98% and 96% and 31%; % Inhibition 6 hour ([3]; 5 mg/Kg, 6 hour post dose): 84% and 14%; inhibition at 5 mg/kg ([3]; 1 h, 1 hour post dose, read-out: % Inhibition 1 hour): 100%; inhibition at 5 mg/kg ([3]; 2 h, 2 hour post dose, read-out: % Inhibition 2 hour): 99%"
< 1000 nM,"Cc1cc(C)c(NC(=O)N(O)C(C)C)cc1C [Compound 67, 1-Hydroxy-1-(1-methylethyl)-3-(2,4,5-trimethylphenyl)urea]",23%,
4000 nM,"CC(C)N(O)C(=O)Nc1ccc([S+](C)[O-])cc1 (stereo not drawn) [Compound 63, 1-Hydroxy-1-(1-methylethyl)-3-[4-(methylsulfinyl)phenyl]urea]",92%,
< 100 nM,"CCC(CC)N(O)C(=O)Nc1cccc(Oc2ccccc2)c1 [Compound 77, 1-Hydroxy-1-(1-ethylpropyl)-3-(3-phenoxyphenyl)urea]",7%,
< 1000 nM,"COc1ccc(NC(=O)N(O)C2CCCCCCC2)cc1 [Compound 37, 1-Cyclooctyl-1-hydroxy-3-(4-methoxyphenyl)urea]",7%,
